PubChem BioAssay AID179 (DTP/NCI, 2004)
Activity calls are given as the source filed them.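 The calls were made as follows: active = compounds giving half or more protection of infected cells from virus-caused growth loss, again on retest; inactive = the rest.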

System: CEM cells HIV-1 protection, formazan growth assay
Experiment: NCI AIDS Antiviral Assay
Details: for IC50: measured here: growth of uninfected CEM cells
In short: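 Protection of CEM cells against HIV-1 was scored from cell growth (soluble formazan) across five concentrations, with parallel uninfected cells. Lack of protection may reflect toxicity.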

Structure (SMILES)	EC50 [µM]	IC50 [µM]	outcome
N=c1oc2ccc([N+](=O)[O-])cc2cc1C(=O)NCc1ccccc1	> 200	14.1	
C[Si](C)(OCCS(=O)(=O)O)C1(Cc2cccc3ccccc23)S(=O)(=O)OCCOS1(=O)=O	> 200	107	
COc1ccc2c(c1)CC[C@@H]1[C@@H]2CC[C@]2(C)/C(=N/OCCN3CCCC3)CC[C@@H]12	> 200	1.12	
C=C(c1cccn1S(=O)(=O)c1ccccc1)c1cccn1S(=O)(=O)c1ccccc1	> 100	25.7	
COc1ccc2c[n+](C)c3c4cc(OC)c(OC)cc4ccc3c2c1			inactive
NC(=O)C1(c2ccccc2)Nc2ccccc2S1 (stereo not given)	> 977	102	
COC1=CC(=O)O/C1=C(\OC)C1OC1c1ccccc1 (stereo not given)	5.37	97.7	
Cc1cc(=O)c2c(o1)-c1ccccc1C(c1ccccc1)c1ccccc1-2 (stereo not given)	1.51	25.1	
CCOC(=O)c1sc2nc(-c3ccccc3)nn2c1CBr	> 200	1.07	
Cc1cc(C)cc(OCC2CNC(=O)O2)c1 (stereo not given)	> 200	> 200	
O=C1NC(O)c2ccccc2O1 (stereo not given)	85.1	> 200	
CC(=O)SC(C[N+](=O)[O-])c1ccc2c(c1)OCO2 (stereo not given)	> 200	3.98	
C#CC1(O)CCC2C3CCc4cc(Oc5nc(F)nc(-c6c7cc8ccccc8cc7c(SCC)n6CCC)n5)ccc4C3CCC21C (stereo not given)			inactive
COc1c(-c2ccc(F)cc2)oc2c(CC(=O)O)cccc2c1=O	> 200	162	
CCc1nc2ccccn2n1	> 200	> 200	
CC12CCC(=O)N1c1cccnc1N2 (stereo not given)	> 1320	1120	
CC#CCOC(=O)c1ccccc1OC(C)=O	> 200	> 200	
COc1cc(Nc2cnc3cc(C(F)(F)F)ccc3n2)cc(OC)c1OC	> 50.1	> 50.1	
O=c1[nH]cnc2cc3c(cc12)nc1n3CCOC1	> 52.5	> 52.5	
COC1OC(C(=O)O)C2OC(C)(C)OC12 (stereo not given)	> 200	> 200	
CCOC(=O)/C=C/CCCC(N1CCCC1)n1nnc2ccccc21 (stereo not given)	> 200	3.31	
CC(=Nc1ccccc1C(=O)O)c1c(O)ccc2c(C)cc(=O)oc12	> 107	> 107	
O=C(O)CCC(=O)Nc1ccccc1	> 200	> 200	

Structure (SMILES)	EC50 [µM]	IC50 [µM]	outcome
COC(=O)c1ccccc1CC1Cc2ccc3c(c2C1=O)CCC3 (stereo not given)	> 200	> 200	
COC(=O)C(/C(=N\O)C(=O)Nc1ccc(Br)cc1)c1nc2ccccc2[nH]c1=O (stereo not given)	> 141	> 141	
COCc1cn(C2CC(F)C(CO)O2)c(=O)nc1N (stereo not given)	> 457	> 457	
O=c1cccc(-c2cccc(=O)[nH]2)[nH]1			inactive
O=c1[nH]c2ncccc2c(=O)n1O	> 200	34.7	
CCCCCCc1cc2cc(C(=O)Nc3nc(C45CC6CC(CC(C6)C4)C5)cs3)c(=O)oc2cc1O	> 100	8.51	
CC1=N/C(=C\c2cccc3ccccc23)C(=O)O1	> 11.5	> 11.5	
N#Cc1nc(Nc2ccc([N+](=O)[O-])cc2)sc1N	> 38	19.1	
CC(=O)N(C(C)=O)c1c(N)n(C)c(=O)[nH]c1=O			inactive
O=C(OCCN1CCCCC1)c1cc2ccccc2[nH]1	> 200	> 200	
COc1ccc(NC2C(=O)C3(C)CCC2C3(C)C)cc1 (stereo not given)			inactive
CC1(C)CC(=O)c2c(nc(SSc3nc4c(c(-c5ccc(Br)cc5)c3C#N)C(=O)CC(C)(C)C4)c(C#N)c2-c2ccc(Br)cc2)C1	18.6	162	
C#C/C=C\CCCC/C=C\C#CC#CCCCC#CC#C[C@H](COS(=O)(=O)O)OS(=O)(=O)O	30.9	> 200	
CC(=O)Oc1cc2c(n(C)c1=O)-c1ccccc1C2	> 200	6.61	
Cc1ccccc1Nc1nc(NNC(=O)Cc2ccccc2)nc(NNC(=O)c2ccncc2)n1	155	407	
Nn1c(NNC(=O)C(=O)Nc2cc(Cl)c(Cl)cc2Cl)n[nH]c1=S	> 123	> 123	
O=[N+]([O-])C(=C(c1ccccc1)c1ccccc1)[N+](=O)[O-]			inactive
NC(=O)CNC(=O)c1ccccc1SC(=O)CCCC[n+]1ccccc1	1.74	178	
CCc1ccc(N2C(=O)C(CC(=O)O)SC23C(=O)N(Cc2ccccc2)c2ccccc23)cc1 (stereo not given)	> 525	28.8	
CN(C(=O)C12C3C4C5C3C1(C(=O)C13C6C7C8C6C1C8C73)C5C42)C(C)(C)C (stereo not given)	> 135	> 135	
CC1(C)CCc2c(cc3c(c2O)CCC(C)(C)O3)O1	> 200	> 200	
CC(C)c1ccccc1NC(=O)CCc1n[nH]c(=S)o1	> 324	> 324	
Cc1cccc(-n2cc(C#N)c3c(C)cc(C)nc32)c1	> 100	> 100	

Structure (SMILES)	EC50 [µM]	IC50 [µM]	outcome
Cc1cc2c(cc1Cl)SC(NNc1ccc([N+](=O)[O-])cc1)=NS2(=O)=O			inactive
O=C(CC(C(=O)c1ccoc1)c1ccco1)c1ccco1 (stereo not given)	> 200	151	
O/N=C(\c1ccccc1)N1CCCCC1			inactive
Cc1cc2oc(-c3ccccc3)c(C)c(=O)c2c2c1OC(C)(C)S2	> 39.8	> 39.8	
O=C1c2c(c(-c3ccccc3)c(-c3ccccc3)c(-c3ccccc3)c2-c2ccccc2)C(=O)N1c1cccc(Br)c1	> 3.31	> 3.31	
CC(=O)CC1CCC(=O)CCC(=O)OC(CC(C)=O)CCC(=O)CCC(=O)O1 (stereo not given)	170	> 200	
CC(=O)OCCOCn1c2c(c(=S)[nH]c1=O)CCC2	> 200	> 200	
COc1cc(Nc2cnc3ccc(N)cc3n2)cc(OC)c1OC	> 550		
COc1ccccc1NC(=O)CC(=O)n1nc(C)c(N=Nc2ccccc2C(=O)O)c1C	> 302	245	
CCN(CC)CCOc1cccc(/C=C(\C#N)c2ccccc2)c1	> 100	7.76	
CCc1cccc(C)c1NC(=O)CCc1nc(=S)[nH][nH]1	> 617	> 617	
N#Cc1n[nH]n(C2CCCCC2)c1=O	> 200	> 200	
Nc1c(S(=O)(=O)O)cc2cc(S(=O)(=O)O)ccc2c1N=Nc1ccc(CCc2ccc(N=Nc3c(N)c(S(=O)(=O)O)cc4cc(S(=O)(=O)O)ccc34)cc2S(=O)(=O)O)c(S(=O)(=O)O)c1	7.59	60.3	
O=C1C=C2C(=NC34CCCCC3C(c3ccccc3)C3=C(c5ccccc5CC3)N24)c2ccccc21 (stereo not given)	186	> 200	
COc1cc(C2c3c(oc4ccccc4c3=O)Oc3oc4ccccc4c(=O)c32)cc(OC)c1O	> 5.75	> 5.75	
C#CCOC(=O)c1ccccc1OC(C)=O.[C-]#[O+].[C-]#[O+].[C-]#[O+].[C-]#[O+].[C-]#[O+].[C-]#[O+].[Co].[Co]	> 200	9.33	
O=C1C=CC2=C3c4cc(O)c(O)cc4CC3(O)COC2=C1O (stereo not given)	> 45.7	40.7	
CC(=O)O[C@@H]1CC[C@]2(C)C3CC[C@]4(C)C(C(C)CCc5nc6ccccc6[nH]5)CCC4C3[C@H](OC(C)=O)C[C@@H]2C1 (stereo not given in full)	> 50.1	12.9	
[N-]=[N+]=C(S(=O)(=O)O)S(=O)(=O)O	> 200	> 200	
COC(=O)c1ccc(NCC2=CC(=O)c3ccccc3C2=O)cc1	> 200	2.09	
COC(=O)c1c2c(c(-c3ccccc3)c3c1-c1nc(Cl)ccc1CC3)CCc1ccc(Cl)nc1-2	> 20.4	> 20.4	
CCN(CC)C(=O)Cn1c(-c2ccccc2)cc2ccccc21	> 200	40.7	
COC(=O)N/N=C/c1oc(-c2ccccc2)c(-c2ccccc2)c1[N+](=O)[O-]	> 61.7	> 61.7	

Structure (SMILES)	EC50 [µM]	IC50 [µM]	outcome
COc1ccc(CC#C/C=C/C(=O)NCC(C)C)cc1	> 95.5	14.1	
CCOC(=O)[C@H]1Nc2ccc(OC)cc2C2c3ccccc3CC21 (stereo not given in full)	> 57.5	> 57.5	
C=CCC12CCC(=O)[C@@]1(C)CC=C(O)C2=O (stereo not given in full)			inactive
CC1=CC[C@H](C[C@H](C#CCCCC2OCCO2)O[Si](C(C)C)(C(C)C)C(C)C)C(=O)CC1	> 200	9.77	
COC(=O)c1ccccc1SSCCN	> 200	19.1	
COC(=O)C1Cc2c(OC)ccc(OC)c2C(O)C1C(=O)OC (stereo not given)	> 200	> 200	
COC(=O)C1CC23C=CCN4CC(C2C)C2(c5ccccc5NC12)C43 (stereo not given)	> 200	112	
O=C1/C(=C/c2cccc3ccccc23)Cc2ccccc21	> 200	97.7	
CC(=O)C1C(=O)C(=O)N(c2ccc(Cl)cc2C)C1=O (stereo not given)	> 93.3	> 93.3	
O=C1/C(=C/c2ccccc2Cl)COc2ccccc21	> 19.1	11.2	
O=C1c2ccccc2SC[C@@H]2CCCN12	> 407	> 407	
OC(C/C=N/Nc1ccccc1)(C(F)(F)Cl)C(F)(F)Cl	> 200	10	
NC(=S)N/C=C\c1nc2ccccc2[nH]c1=O	> 200	> 200	
Cc1nc2sccn2c1C(=O)NN	> 1260	912	
CC(=O)NC(C)(C)C1CC=C(C)CC1 (stereo not given)	> 200	> 200	
CCCCCCCCCCCCCCCCc1c(C(=O)OC)[nH]c(=S)[nH]c1=O	> 3.55	> 3.55	
O=C(Nc1ccc(Cl)cc1Cl)c1c/c(=N\O)c2ccc(O)cc2o1			inactive
N=C1/C(=C/c2ccccc2)C(=O)N=C2SC=NN12	> 200	> 200	
COc1ccc2c(O)c(Cc3ccc(OC)c(OC)c3)c(=O)oc2c1			inactive
NC1CCC2(O)c3ccccc3C2C1 (stereo not given)	> 200	> 200	
CSc1nnc(SC)nn1	> 200	0.851	
Cc1ccc(N=Nc2ccc(O)c(CN(C)C)c2)cc1C	> 200	17.4	
